Source: a melting point compilation (Tetko et al.; mined from patent text by program, amines drawn as free bases though some values may be those of a salt)

`Cn1cc(C2(c3c4n(c5ccccc35)CCCCC4)CC(=O)OC2=O)c2ccccc21` (centres undefined) gave a melting point of 257 to 259 °C.
With `Cc1c(NC(=O)C(CSC(=O)c2ccco2)Cc2ccccc2)cccc1C(=O)O` (centres undefined) the melting point was 113 to 116 °C.
For `CN1CCC(NC2=Nc3ccccc3Cn3nnnc32)CC1`, the melting point was 112 to 114 °C.
Work on `CC(=O)NC[C@H]1CN(c2ccc(N3CCC(n4cc(C(F)F)nn4)CC3)c(F)c2)C(=O)O1` yielded a melting point of 186 to 188 °C.
`CCc1ccc2nc(Cl)nc(Nc3ccccc3C)c2c1` showed a melting point of 177 to 179 °C.
`CCC(=O)NCC(COS(C)(=O)=O)c1cccc2ccc(OC)cc12` (centres undefined) showed a melting point of 118 to 120 °C.
With `Cc1cc(C(=O)O)n(CC(F)(F)F)n1` the melting point was 135 to 139 °C.
In the case of `Cc1cccc(Cl)c1C(=O)N[C@@H](Cc1ccc(NC(=O)c2c(Cl)cccc2Cl)cc1)C(=O)O`, the melting point is reported as 212 to 215 °C.
`CCn1c(=O)[nH]c2c3ccccc3ccc21` showed a melting point of 240 to 242 °C.
Work on `Cc1cccc(C(=O)NO)c1N(C)S(=O)(=O)c1ccc(OCCCNC(=O)c2ccc3c(c2)OCO3)cc1` yielded a melting point of 102 to 112 °C.
Molecule `COC(=O)C1C(c2ccc(Br)cc2)CC2CCC1N2C` (centres undefined) has a melting point of 114 to 116 °C.
In the case of `O=C(O)CN(CC(=O)O)c1cc(OCCCCCCCCCCCCOc2ccccc2)cc(OCCCCCCc2cccc(O)c2O)c1`, the melting point is reported as 129 to 131 °C.
`O=C(NN1CCCNC1=O)OCc1ccccc1` showed a melting point of 161 to 163 °C.
`CCCCCCCC(O)CNCCCCCCNCC(O)CCCCCCC` (centres undefined) gave a melting point of 122 to 129 °C.
`COc1ccc(NC(=O)c2ccc(-c3ccc(-c4noc(CO)n4)cc3C)cc2)cc1N1CCN(C)CC1` gave a melting point of 175 to 178 °C.
In the case of `CC(C)Oc1ccc2c(c1)Cc1ccccc1C2=O`, the melting point is reported as 123 to 124 °C.
`CCCCCCNc1nc2nc(N)[nH]c(=O)c2s1` gave a melting point of over 320 °C.
In the case of `CCOC(=O)c1ncn(Cc2ccccc2)c1OC`, the melting point is reported as 127 to 128 °C.
Molecule `Cc1cn(Nc2ccncc2F)c2ccc(OCc3ccccc3)cc12` has a melting point of 210 to 213 °C.
For `Cc1cc(C)cc(NC(=O)Cc2ccc(O)cc2)c1`, the melting point was 183 to 185 °C.
`CC(=O)N1C(=O)N(COCc2ccccc2)C(=O)C12c1ccccc1N(CC(C)C)C(=O)N2C` (centres undefined) showed a melting point of 70 to 72 °C.
Molecule `CC(C)n1cnc2c(NCc3cccnc3)nc(F)nc21` has a melting point of 131 to 133 °C.
For `CCc1cn(C2CC(O)C(CNC)O2)c(=O)[nH]c1=O` (centres undefined), the melting point was 145 to 147 °C.
Work on `CCCc1cnc(NC(=O)C(c2ccccc2)c2ccccc2)o1` yielded a melting point of 122 °C.
`COc1ccc2c(=O)c3c(OC)cccc3oc2c1OC` gave a melting point of 145 to 146 °C.
`CN1C(=O)C(c2ccc(OC(F)F)cc2)(c2cccc(C3CC(=O)C3(C)C)c2)N=C1N` (centres undefined) showed a melting point of 172 to 174 °C.
For `Cn1cc(-c2ccc(F)cc2)c(C(=O)O)n1`, the melting point was 146 to 147 °C.
Molecule `COc1ccc(C2=NN(C3CCSCC3)C(=O)[C@H]3CC=CC[C@@H]23)c2c1OC(C)(C)C2` (relative stereo) has a melting point of 163 to 164 °C.
With `c1ccc(C(CCOc2ccc(-c3nnn[nH]3)cc2)(c2ccccc2)c2ccccc2)cc1` the melting point was 232 to 233 °C.
Work on `N#Cc1ccc(N2C(=O)N(CCCC(=O)O)C3(CCOCC3)C2=O)cc1C(F)(F)F` yielded a melting point of 151 to 152 °C.
Molecule `CC(C)(C)c1ccccc1N1CCN(C(=O)c2ccccc2)CC1` has a melting point of 104 to 106 °C.
With `O=C1N(CCOCc2ccccc2)CCN1c1ccc(C(F)(F)F)cc1` the melting point was 66 to 68 °C.
`CC(=O)Oc1cc2c(nc1C)C(=O)OC2=O` gave a melting point of 123 to 125 °C.
Molecule `N#Cc1c(F)cccc1Nc1ccccc1` has a melting point of 97 to 99 °C.
Work on `Nc1cc(C(=O)O)ccc1OCCCCCCc1cccc(O)c1O` yielded a melting point of 172 to 174 °C.
For `COc1cc(CC(=O)Nc2ccc(C3CN(Cc4ccccc4)CC3C(=O)O)cc2)ccc1NC(=O)Nc1ccccc1C` (centres undefined), the melting point was 255 °C.
With `CON(C)C(=O)c1cc(C)c(C(c2cc(F)ccc2F)S(=O)(=O)c2ccc(F)cc2)cn1` (centres undefined) the melting point was 156 to 158 °C.
`CCCC1=C(C(=O)OCC)C(c2ccccc2Cl)c2cn(C(=O)Oc3ccccc3)nc2N1` (centres undefined) showed a melting point of 156 to 157 °C.
`COc1ccc(N2C(=O)C3=C(SCCS3)C2CC(=O)N2CCCCC2)cc1` (centres undefined) gave a melting point of 163 to 164 °C.
Work on `CCCOc1ccc(Cl)cc1C1=NC(=O)C2=NC=NC2=N1` yielded a melting point of 277 to 279 °C.
`COc1cc(COc2nn(Cc3ccccc3)cc2C(=O)O)ccc1OCc1nc(-c2ccco2)oc1C` gave a melting point of 167 to 168 °C.
In the case of `CCOC(=O)C(=O)CC(=O)CC(=O)c1ccc(C)cc1`, the melting point is reported as 76 °C.
Molecule `CCOC(=O)c1c(CCCn2cncn2)nc2cc(OC)c(OC)cc2c1-c1ccc(OC)c(OC)c1` has a melting point of 141 to 142 °C.
Work on `CC(=O)Nc1ccc(OC2SCC(O)C(O)C2O)cc1` (centres undefined) yielded a melting point of 238 °C.
Molecule `CC(C)(C)OC(=O)N(Cc1ncccc1C(N)=NO)C(=O)OC(C)(C)C` has a melting point of 178 to 180 °C.
Work on `O=C(Cl)c1cc([N+](=O)[O-])ccc1F` yielded a melting point of 59 to 60 °C.
With `N#Cc1cc(F)c(-n2nc3ccc(Cl)cn3c2=O)cc1F` the melting point was over 230 °C.
Molecule `CC1=N/C(=C\c2c[nH]c3ncccc23)C(=O)N1C(C)C` has a melting point of 207 °C.
Molecule `CC(O)CC(=O)NCCN` (centres undefined) has a melting point of 71 to 73 °C.
For `CN(C(=O)Nc1ccc(Cl)c(Cl)c1)C(Cl)C(Cl)(Cl)Cl` (centres undefined), the melting point was 132 to 140 °C.
In the case of `CS(=O)(=O)c1nccc(-n2cncn2)n1`, the melting point is reported as 135 to 136 °C.
With `COC(=O)C(C(=O)OC)c1ccc([N+](=O)[O-])cc1C(=O)O` the melting point was 163 to 164 °C.
`CCc1nn(C2CCCC2)c2nc(COS(C)(=O)=O)nc(OS(C)(=O)=O)c12` showed a melting point of 114 to 116 °C.
For `Cc1sc(-n2cccc2)c(C#N)c1C`, the melting point was 45 °C.
`CC(=O)Nc1c(-c2ccccc2)nn2ccccc12` showed a melting point of 188 to 189 °C.
Molecule `N=C(Nc1ccc2[nH]cc(C3CCN(C(=O)c4ccccc4)CC3)c2c1)c1cccs1` has a melting point of 180 to 183 °C.
For `CCCCCOC(=O)CNC(=O)c1nc(Cl)c2ccc(OC(C)C)cc2c1O`, the melting point was 75 to 77 °C.
For `CC(C)(C)c1ccc(C(=O)Nc2cn3c4c(ccc3n2)OCC4)cc1`, the melting point was 266 to 268 °C.
With `N#CCC1(c2onc(-c3ccc(O)cc3)c2-c2ccccc2)CC1` the melting point was 189 to 190 °C.
With `CN1C(=O)[C@@H](CN2CCCCC2)C[C@H]1c1ccc(Br)s1` the melting point was 69 to 71 °C.
For `CCCCCCCCCCCCCCCCCCSc1ccc(O)cc1`, the melting point was 95 °C.
In the case of `Cc1ccc2c(-c3cc(C(C)(C)C)c(O)c(C(C)(C)C)c3)nn(C)c2n1`, the melting point is reported as 178 to 181 °C.
With `CCn1c(CO)nc(C(C)C)c1Sc1cc(C#N)cc(C#N)c1` the melting point was 167 to 169 °C.
Molecule `Cc1cccc2nnc(-c3ccccc3)c(O)c12` has a melting point of 215 to 217 °C.
`CCCCOC(=O)Cc1ccc(CNS(=O)(=O)c2ccccc2)cc1` gave a melting point of 60.5 to 61 °C.
With `Cc1nc(-c2ccc(S(C)(=O)=O)cc2)c(-c2ccc(-c3cscn3)cc2)s1` the melting point was 194 °C.
Work on `CC(C)n1nc(-c2c(-c3ccccc3)nn3ccc(OCc4ccncc4)cc23)ccc1=O` yielded a melting point of 218 to 220 °C.
Work on `CCCc1nn(-c2ccc(C(F)(F)F)cn2)cc1CCCC=O` yielded a melting point of 71 to 72 °C.
`CC(C)(C)OC(=O)NCC(N)C(=O)N1CCCCC1` (centres undefined) showed a melting point of 87 to 90 °C.
`CC(=O)C(=Cc1cccc([N+](=O)[O-])c1)C(=O)OC(C)C(C)(C)NCCC(c1ccccc1)c1ccccc1` (centres undefined) showed a melting point of 65 to 80 °C.
With `FC(F)(F)c1ccc(-c2ccc(Cl)nn2)cc1` the melting point was 186 to 188 °C.
`Cc1c(Cl)cc(C2=NNC(=O)C(S)C2)cc1Cl` (centres undefined) gave a melting point of 184 to 187 °C.
Work on `COc1ccc(-c2cc(=O)n(C)c(=O)[nH]2)cc1OC` yielded a melting point of 262 to 263 °C.
`CC(=O)CC(=O)NCC1C(NC(=O)CC(C)=O)C(C)CC1(C)C` (centres undefined) showed a melting point of 94 to 114 °C.
Work on `Cc1cccc(NC(=O)NCC(=O)N(Cc2ccccc2)c2ccccc2)c1` yielded a melting point of 175 °C.
Work on `CCCCCCCCCCCCCCCCCCN(C(=O)CCCCCCCCCCC)C1O[C@H](CO)[C@@H](O)[C@H](O)[C@H]1NC(=O)CCCCCCCCCCC` (some centres undefined) yielded a melting point of 86 °C.
In the case of `CCN(CC)CCOc1ccc(-n2c(-c3ccccc3)cc(=O)c3ccccc32)cc1`, the melting point is reported as 115 to 117 °C.
For `C#CCOC(=O)Cn1cccc1-c1nc(-c2ccc(OC)cc2)c(-c2ccc(OC)cc2)s1`, the melting point was 100 to 103 °C.
For `COc1cccc(CO)c1C(O)c1ccccn1` (centres undefined), the melting point was 102 to 104 °C.
Molecule `CCCc1c(OCCCOc2ccc(CC(=O)OC)cc2Br)ccc(C(C)=O)c1O` has a melting point of 91 to 92 °C.
For `COC(=O)C(=O)Nc1ccc(-c2ccccc2S(=O)(=O)NC(C)(C)C)cc1`, the melting point was 132 °C.
For `CS(=O)(=O)c1ccc(-n2nc(C(F)(F)F)cc2-c2nc3c(F)cccc3s2)cc1`, the melting point was 208 to 209 °C.
With `CCOC(=O)c1cn2c(C)csc2n1` the melting point was 117 to 119 °C.
Work on `COC1CC(OCc2ccccc2)C(OS(=O)(=O)c2ccc(C)cc2)C(CO)O1` (centres undefined) yielded a melting point of 100 to 101 °C.
`C[C@H](c1ccccc1)N(CC(=O)OC(C)(C)C)S(=O)(=O)c1ccc2c(Cl)cnc(NC(=N)N)c2c1` showed a melting point of 106 to 111 °C.
With `N#CSc1nc(I)ncc1I` the melting point was 183 to 185 °C.
For `Cc1nc2ccc(F)cc2[nH]c1=O`, the melting point was 258 to 260 °C.
In the case of `NCc1cccc(OCCC(=O)O)c1`, the melting point is reported as 134 to 138 °C.
`COCCCN1C(=O)CC(=O)Nc2ccccc21` gave a melting point of 137 to 138 °C.
`CCCCCCCNC(=O)Nc1ccccc1CNCc1cc(C(C)(C)C)c(O)c(C(C)(C)C)c1` gave a melting point of 135 to 138 °C.
For `N#Cc1ccc(Nc2nc(Oc3c(Br)cc(Br)cc3Br)ccc2[N+](=O)[O-])cc1`, the melting point was 188 to 191 °C.
`CC(C)NC(=S)n1ccc2ccc(Cl)cc21` showed a melting point of 92 to 93 °C.
`Nc1nc(Nc2ccc(SC3(Cl)C=CC(C(F)(F)F)=CN3)cc2)sc1C(=O)c1ccccc1[N+](=O)[O-]` (centres undefined) gave a melting point of 150 to 152 °C.
Work on `Cc1ccc(-c2cc(C)c3c(c2)C(C)CC(=O)N3)c(C)n1` (centres undefined) yielded a melting point of 146 to 148 °C.
`CC1=C(C(=O)OC(C)C)C(c2cccc(Cl)c2)NC(=O)N1C(=O)NC(C)c1ccccc1` (centres undefined) showed a melting point of 198 to 200 °C.
For `O=S(=O)(c1ccccc1)c1ccc2c(c1)[C@@H](O)[C@H](Br)CCO2` (relative stereo), the melting point was 190 to 193 °C.
Work on `COc1ccc2c(c1)C1=C[C@@H](C(=O)NC(C)(C)C)CN(C)[C@@H]1CO2` (relative stereo) yielded a melting point of 188 to 189 °C.
`CC(C)(O)c1ccc(-c2cnc3[nH]c(=O)n(CC4CCCCC4)c3n2)cn1` gave a melting point of over 250 °C.
`NC(=O)c1ccc(OCCN(Cc2ccccc2)CC(O)c2ccc(OCc3ccccc3)c(OCc3ccccc3)c2)cc1` (centres undefined) showed a melting point of 110 to 111 °C.
